From patent publication US10577383B2, “Macrocyclic inhibitors of myeloperoxidase” (BRISTOL-MYERS SQUIBB COMPANY, priority 2016, dated 2020)

Settings: the molecule shown is the open-chain precursor; ether bond; 16-membered ring; CuI/1,10-phenanthroline/Cs2CO3; toluene; 4.8 mM; 150.0 °C

Oc1cccc(Cn2cc(C(CCNCc3cccc(I)c3)c3cc(NC(c4ccccc4)(c4ccccc4)c4ccccc4)nc4c3nnn4C(c3ccccc3)(c3ccccc3)c3ccccc3)cn2)c1 (stereo not shown)
ring closure, isolated yield: 29%
